Tested on: IP10
Experiment: Cytokine measurement in mouse plasma (IP10)
Format: in vivo
Conditions: 300 mg/kg/dose oral BID; day 8 of dosing, 2 hours post 16th dose
Procedure: Whole blood was drawn into sodium heparin by cardiac puncture from mice on day 8 of dosing with indicated PTPN2/1B inhibitor (2 hours after the 16th dose) and plasma was prepared by centrifugation. Cytokines in plasma were measured using the Th1/Th2 Cytokine & Chemokine 20-Plex Mouse ProcartaPlex™ Panel 1 (Invitrogen, Carlsbad, Calif.). IP10 levels were expressed as fold-changes over the vehicle control animal group.

With `COc1ccc2cc(O)c(N3CC(=O)NS3(=O)=O)c(F)c2c1` [Compound 124, 5-(1-fluoro-3-hydroxy-7-methoxynaphthalen-2-yl)-1λ^6,2,5-thiadiazolidine-1,1,3-trione] the “IP10 in plasma [fold increase over vehicle]” value was 2.5 fold.

Source: US20210009542A1 (Calico Life Sciences LLC, priority 2018, published 2021)
